Results as given in US10604535B2, “Compounds, compositions and methods” (Denali Therapeutics Inc., priority 2016, dated 2020).

biological target: GST-hRIPK1 (8-327) (Homo sapiens (Human), UniProt Q13546); assay: Fluorescent Polarization Binding (FP Binding) assay; conditions: not given
Sequence (Q13546 8-327): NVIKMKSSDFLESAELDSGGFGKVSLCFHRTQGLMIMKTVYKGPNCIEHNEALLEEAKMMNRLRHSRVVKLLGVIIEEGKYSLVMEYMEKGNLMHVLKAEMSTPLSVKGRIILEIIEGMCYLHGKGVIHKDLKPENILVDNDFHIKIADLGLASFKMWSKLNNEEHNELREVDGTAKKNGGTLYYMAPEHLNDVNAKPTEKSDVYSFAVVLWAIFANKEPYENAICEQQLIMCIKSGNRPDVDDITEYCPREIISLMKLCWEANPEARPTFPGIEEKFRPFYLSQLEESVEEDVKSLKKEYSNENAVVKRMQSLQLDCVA

| SMILES | IC50 |
| --- | --- |
| C[C@@H]1Oc2cccnc2N(C)C(=O)[C@H]1NC(=O)c1nn(Cc2ccccc2)cc1F [Example 93, 1-benzyl-N-((2S,3S)-2,5-dimethyl-4-oxo-2,3,4,5-tetrahydropyrido[3,2-b][1,4]oxazepin-3-yl)-4-fluoro-1H-pyrazole-3-carboxamide] | 0.1 to 1000 nM |
| CN1C(=O)[C@@H](NC(=O)c2cc(Oc3ccc(F)cc3F)ccn2)CCc2cccnc21 [Example 121B, (S)-4-(2,4-difluorophenoxy)-N-(9-methyl-8-oxo-6,7,8,9-tetrahydro-5H-pyrido[2,3-b]azepin-7-yl)picolinamide] | 0.1 to 1000 nM |
| O=C(NC1COc2cccnc2-n2ccnc21)c1nn(Cc2ccccc2)cc1F (stereo in doubt) [Example 154A, (R)-1-benzyl-N-(6,7-dihydroimidazo[1,2-d]pyrido[3,2-b][1,4]oxazepin-7-yl)-4-fluoro-1H-pyrazole-3-carboxamide] | > 3000 nM |
| C[C@H]1Oc2cccnc2N(C)C(=O)[C@H]1NC(=O)c1cnn(Cc2ccccc2)n1 [Example 204, 2-benzyl-N-((2R,3S)-2,5-dimethyl-4-oxo-2,3,4,5-tetrahydropyrido[3,2-b][1,4]oxazepin-3-yl)-2H-1,2,3-triazole-4-carboxamide] | 0.1 to 1000 nM |
| N#Cc1cccc(Cn2cc(F)c(C(=O)N[C@H]3C(=O)Nc4c(F)cc(F)cc4[C@H]4C[C@H]43)n2)c1 [Example 170B, 1-(3-cyanobenzyl)-N-((1aR,2R,8bS)-5,7-difluoro-3-oxo-1,1a,2,3,4,8b-hexahydrobenzo[b]cyclopropa[d]azepin-2-yl)-4-fluoro-1H-pyrazole-3-carboxamide] | > 3000 nM |
| Cc1cnn2c1N(C)C(=O)[C@H](NC(=O)c1nnc(Cc3ccccc3)[nH]1)CC2 [Example 131B, (R)-5-Benzyl-N-(3,4-dimethyl-5-oxo-5,6,7,8-tetrahydro-4H-pyrazolo[1,5-a][1,3]diazepin-6-yl)-4H-1,2,4-triazole-3-carboxamide] | > 3000 nM |
| CN1C(=O)[C@@H](NC(=O)c2cnc(Cc3ccccc3)[nH]2)COc2cccnc21 [Example 108, (S)-2-benzyl-N-(5-methyl-4-oxo-2,3,4,5-tetrahydropyrido[3,2-b][1,4]oxazepin-3-yl)-1H-imidazole-5-carboxamide] | 0.1 to 1000 nM |
| CN1C(=O)[C@H](NC(=O)c2nnc(Cc3ccccc3)[nH]2)CCc2c1cnn2C [Example 101A, (R)-5-benzyl-N-(1,4-dimethyl-5-oxo-1,4,5,6,7,8-hexahydropyrazolo[4,3-b]azepin-6-yl)-4H-1,2,4-triazole-3-carboxamide] | > 3000 nM |
| C[C@H]1Oc2cccnc2N(C)C(=O)[C@H]1NC(=O)c1ccn(Cc2ccccc2)n1 [Example 155, 1-Benzyl-N-((2R,3S)-2,5-dimethyl-4-oxo-2,3,4,5-tetrahydropyrido[3,2-b][1,4]oxazepin-3-yl)-1H-pyrazole-3-carboxamide] | 0.1 to 1000 nM |
| CN1C(=O)[C@@H](NC(=O)c2cc(CC(F)(F)F)on2)COc2ccccc21 [Example 14, (S)—N-(5-methyl-4-oxo-2,3,4,5-tetrahydrobenzo[b][1,4]oxazepin-3-yl)-5-(2,2,2-trifluoroethyl)isoxazole-3-carboxamide] | 0.1 to 1000 nM |
| C[C@@H]1Oc2cccnc2N(C)C(=O)[C@H]1NC(=O)c1nnc(Cc2ccccc2)[nH]1 [Example 95, 5-benzyl-N-((2S,3S)-2,5-dimethyl-4-oxo-2,3,4,5-tetrahydropyrido[3,2-b][1,4]oxazepin-3-yl)-4H-1,2,4-triazole-3-carboxamide] | > 3000 nM |
| CN1C(=O)[C@H](NC(=O)c2nnc(Cc3ccccc3)[nH]2)CCc2nn(C)cc21 [Example 105B, (R)-5-benzyl-N-(2,4-dimethyl-5-oxo-2,4,5,6,7,8-hexahydropyrazolo[4,3-b]azepin-6-yl)-4H-1,2,4-triazole-3-carboxamide] | > 3000 nM |
| CN1C(=O)[C@H](NC(=O)c2nnc(Cc3ccccc3)o2)[C@@H]2C[C@@H]2c2cccnc21 [Example 157A, 5-benzyl-N-((1aR,2R,8bS)-4-methyl-3-oxo-1,1a,2,3,4,8b-hexahydrocyclopropa[d]pyrido[2,3-b]azepin-2-yl)-1,3,4-oxadiazole-2-carboxamide] | > 3000 nM |
| CN1C(=O)[C@H](NC(=O)c2nnc(Cc3ccccc3)o2)[C@@H]2C[C@@H]2c2nccnc21 [Example 177B, 5-benzyl-N-((7R,7aR,8aS)-5-methyl-6-oxo-5,6,7,7a,8,8a-hexahydrocyclopropa[d]pyrazino[2,3-b]azepin-7-yl)-1,3,4-oxadiazole-2-carboxamide] | > 3000 nM |
| CN1C(=O)[C@H](NC(=O)c2nnc(C3(c4ccccc4)CC3)o2)CCc2nccnc21 [Example 180B, (R)—N-(5-methyl-6-oxo-6,7,8,9-tetrahydro-5H-pyrazino[2,3-b]azepin-7-yl)-5-(1-phenylcyclopropyl)-1,3,4-oxadiazole-2-carboxamide] | > 3000 nM |
| CN1C(=O)[C@H](NC(=O)c2nn(Cc3ccccc3)cc2F)CCc2c1cnn2C [Example 114B, (R)-1-benzyl-N-(1,4-dimethyl-5-oxo-1,4,5,6,7,8-hexahydropyrazolo[4,3-b]azepin-6-yl)-4-fluoro-1H-pyrazole-3-carboxamide] | > 3000 nM |
| CN1C(=O)[C@H](NC(=O)c2nnc(Cc3ccccc3)o2)C2(CC2)Oc2cccnc21 [Example 160B, (R)-5-benzyl-N-(5′-methyl-4′-oxo-4′,5′-dihydro-3′H-spiro[cyclopropane-1,2′-pyrido[3,2-b][1,4]oxazepin]-3′-yl)-1,3,4-oxadiazole-2-carboxamide] | > 3000 nM |
| CN1C(=O)[C@@H](NC(=O)c2ncc(Cc3ccccc3)o2)[C@H]2C[C@H]2c2nccnc21 [Example 194, 5-benzyl-N-((7S,7aS,8aR)-5-methyl-6-oxo-5,6,7,7a,8,8a-hexahydrocyclopropa[d]pyrazino[2,3-b]azepin-7-yl)oxazole-2-carboxamide] | 0.1 to 1000 nM |

Now from value to compound:

| IC50 | SMILES |
| --- | --- |
| > 3000 nM | O=C(N[C@@H]1COc2cccnc2-n2ccnc21)c1nnc(Cc2ccccc2)[nH]1 [Example 141A, (S)-5-Benzyl-N-(6,7-dihydroimidazo[1,2-d]pyrido[3,2-b][1,4]oxazepin-7-yl)-4H-1,2,4-triazole-3-carboxamide] |
| > 3000 nM | CN1C(=O)[C@H](NC(=O)c2nn(Cc3ccc(F)cc3)cc2F)[C@@H]2C[C@@H]2c2cccnc21 [Example 156A, 4-fluoro-1-(4-fluorobenzyl)-N-((1aR,2R,8bS)-4-methyl-3-oxo-1,1a,2,3,4,8b-hexahydrocyclopropa[d]pyrido[2,3-b]azepin-2-yl)-1H-pyrazole-3-carboxamide] |
| > 3000 nM | CN1C(=O)[C@H](NC(=O)c2nn(Cc3ccccc3)cc2F)CCc2nn(C)cc21 [Example 109B, (R)-1-benzyl-N-(2,4-dimethyl-5-oxo-2,4,5,6,7,8-hexahydropyrazolo[4,3-b]azepin-6-yl)-4-fluoro-1H-pyrazole-3-carboxamide] |
| 0.1 to 1000 nM | Cc1cc2n(n1)CC[C@H](NC(=O)c1nnc(Cc3ccccc3)[nH]1)C(=O)N2C [Example 129A, (S)-5-Benzyl-N-(2,4-dimethyl-5-oxo-5,6,7,8-tetrahydro-4H-pyrazolo[1,5-a][1,3]diazepin-6-yl)-4H-1,2,4-triazole-3-carboxamide] |
| 0.1 to 1000 nM | O=C(N[C@H]1COc2cccnc2-n2ccnc21)c1nnc(Cc2ccccc2)[nH]1 [Example 141B, (R)-5-benzyl-N-(6,7-dihydroimidazo[1,2-d]pyrido[3,2-b][1,4]oxazepin-7-yl)-4H-1,2,4-triazole-3-carboxamide] |
| 0.1 to 1000 nM | CN1C(=O)[C@@H](NC(=O)c2nnc(C3(c4ccccc4)CC3)[nH]2)COc2cccnc21 [Example 106, (S)—N-(5-methyl-4-oxo-2,3,4,5-tetrahydropyrido[3,2-b][1,4]oxazepin-3-yl)-5-(1-phenylcyclopropyl)-4H-1,2,4-triazole-3-carboxamide] |
| 0.1 to 1000 nM | C[C@H]1Oc2cccnc2N(C)C(=O)[C@H]1NC(=O)c1nn(Cc2ccc(C#N)cc2)cc1F [Example 127, 1-(4-Cyanobenzyl)-N-((2R,3S)-2,5-dimethyl-4-oxo-2,3,4,5-tetrahydropyrido[3,2-b][1,4]oxazepin-3-yl)-4-fluoro-1H-pyrazole-3-carboxamide] |
| 1000 to 10000 nM | CN1C(=O)[C@@H](NC(=O)[C@H]2C[C@@H]2Cc2ccccc2)COc2ccccc21 (single isomer, unassigned) [Example 50B] |
| > 3000 nM | Cn1cc2c(n1)CC[C@@H](NC(=O)c1nnc(Cc3ccccc3)[nH]1)C(=O)N2 [Example 104A, (R)-5-benzyl-N-(2-methyl-5-oxo-2,4,5,6,7,8-hexahydropyrazolo[4,3-b]azepin-6-yl)-4H-1,2,4-triazole-3-carboxamide] |
| 1000 to 10000 nM | CN1C(=O)[C@H](NC(=O)c2nnc(Cc3ccccc3)o2)CCc2cccnc21 [Example 148B, (R)-5-benzyl-N-(9-methyl-8-oxo-6,7,8,9-tetrahydro-5H-pyrido[2,3-b]azepin-7-yl)-1,3,4-oxadiazole-2-carboxamide] |
| 1000 to 10000 nM | CN1C(=O)[C@@H](NC(=O)C2CC(Cc3ccccc3)C2)COc2ccccc21 (stereo partly drawn) [Example 43, 3-benzyl-N—((S)-5-methyl-4-oxo-2,3,4,5-tetrahydrobenzo[b][1,4]oxazepin-3-yl)cyclobutane-1-carboxamide] |
| 0.1 to 1000 nM | Cc1cnn2c1N(C)C(=O)[C@@H](NC(=O)c1nnc(Cc3ccccc3)[nH]1)CC2 [Example 131A, (S)-5-Benzyl-N-(3,4-dimethyl-5-oxo-5,6,7,8-tetrahydro-4H-pyrazolo[1,5-a][1,3]diazepin-6-yl)-4H-1,2,4-triazole-3-carboxamide] |
| 0.1 to 1000 nM | CN1C(=O)[C@@H](NC(=O)c2nn(Cc3cnn(C)c3)cc2F)COc2cccnc21 [Example 184, (S)-4-fluoro-1-((1-methyl-1H-pyrazol-4-yl)methyl)-N-(5-methyl-4-oxo-2,3,4,5-tetrahydropyrido[3,2-b][1,4]oxazepin-3-yl)-1H-pyrazole-3-carboxamide] |
| 0.1 to 1000 nM | CN1C(=O)[C@@H](NC(=O)[C@@H]2C[C@H]2Cc2ccccc2)COc2ccccc21 (single isomer, unassigned) [Example 50A] |

tested on: FADD-deficient Jurkat cells; assay: Cellular necroptosis assay (human TNFα-induced necrosis, CellTiter-Glo); assay type: cell-based; conditions: Homo sapiens, Jurkat, 48 h, TNFα 10 ng/mL, read-out: Cell IC50

| SMILES | IC50 |
| --- | --- |
| CN1C(=O)C(NC(=O)c2cc(Cc3ccccc3)on2)CC(F)c2ccccc21 (stereo not drawn) [Example 2, 5-benzyl-N-(5-fluoro-1-methyl-2-oxo-2,3,4,5-tetrahydro-1H-benzo[b]azepin-3-yl)isoxazole-3-carboxamide] | 0.1 to 1000 nM |
